Measured values taken from patent EP3120851A1, “4-AMINO-6-(2,6-DICHLOROPHENYL)-8-METHYL-2-(PHENYLAMINO)-PYRIDO[2,3-D]PYRIMIDIN-7(8H)-ONE FOR TREATMENT OF SOLID CANCERS” (Pangaea Biotech S.L., priority 2015, dated 2017).
Like-named read-outs stand apart in the source and are kept apart here.

Key:
Assay in all cases: MTT cell viability assay, combinations (Chou-Talalay method)
Type in all cases: cell-based
HCC78 cells = test system: HCC78 cells
Protocol: (§1) The combinations comprising the compound of formula (1) were tested using an MTT proliferation assay in a panel of tumor cell lines of different origins. All culture materials were obtained from the sources described in Example 2. In the Chou-Talalay method, which is the standard, universally known methodology to determine drug interactions, the two drugs under study are maintained at a fixed ratio of IC50 single agent (drug 1):IC50 single agent (drug 2) while the concentration of total amount of drugs in the combination is varied and the 20% (IC20), 50% (IC50) and 80% (IC80) of growth inhibition of the combination is determined.
(§2) In the activity assays on cell lines the following terms are used: • IC50: Drug concentration at which 50% growth inhibition is achieved. • TKI IC50: The IC50 of the tyrosine kinase inhibitor as single agent. • Compound (1) IC50: The IC50 of compound (1) as single agent. • CI@IC20: The combination index of the combination consisting of drug 1 and drug 2 at a weight ratio equal to IC50 of drug 1:IC50 of drug 2 wherein said combination is used at a total amount that achieves 20% of growth inhibition. • CI@IC50: The combination index of the combination consisting of drug 1 and drug 2 at a weight ratio equal to IC50 of drug 1:IC50 of drug 2, wherein said combination is used at a total amount that achieves 50% of growth inhibition. • CI@IC80: The combination index of the combination consisting of drug 1 and drug 2 at a weight ratio equal to IC50 of drug 1:IC50 of drug 2, wherein said combination is used at a total amount that achieves 80% of growth inhibition. • Combination TKI IC50: The combination index at a tyrosine kinase inhibitor concentration that corresponds to the IC50 (single agent). • The combination index (CI) concept was introduced by Chou T.C. and Talalay P.(Chou TC, Talalay P. Adv Enzyme Regul 1984;22:27-55). The derived combination index equation for two drugs is (D = dosage or concentration): CI = ((D)1)/((Dx)1) + ((D)2)/((Dx)2) [formula] where (Dx)1 is the concentration of drug 1 "alone" that inhibits growth at a x% (i.e. (D50)1 is the concentration of drug 1 "alone" that inhibits growth at a 50%), (Dx)2 is the concentration of drug 2 "alone" that inhibits growth at a x%, (D)1 and (D)2 refer to the concentration of drug 1 and drug 2, respectively, in the combination, wherein the combination inhibits growth at the same x%. The CI Value quantitatively defines synergism (CI<1) (in particular, CI values of CI<0.7 indicates strong synergism, 0.7<CI<0.85 indicates moderate synergism, 0.85<CI<1 indicates slight synergism), additive effect (CI=1) and antagonism (CI>1). Based on the above equation, a plot of CI values at different effect levels (fa's) can be determined. Entering a series of "dose" ((D1), (D2), ((Dx)1 and (Dx)2) and % of growth inhibition (%x or effect (fa))" into an excel sheet for each drug alone and their combinations, the CI values at different x% (or fa levels) are obtained using the above equation. This plot is also called the Fa-CI plot or the Chou-Talalay plot.
(§3) Cell viability in response to combination treatment was assessed by the Thiazolyl Blue Tetrazolium Bromide (MTT) (Sigma, St Louis, MO) assay. Cells from each cell line were seeded at 2000 to 10000 per well in 96-well plates. […] Twenty-four hours after seeding, cells were exposed to compound (1), commercial drug or combinations thereof for 72 h. In the Chou-Talalay method, which is the standard, universally known methodology to determine drug interactions, the two drugs under study are maintained at a fixed ratio IC50 single agent (drug 1):IC50 single agent (drug 2).
(§4) After treatment, cells were incubated with medium containing MTT (0.75 mg/mL in medium) for 1-2 h at 37°C. Culture medium with MTT was removed and formazan crystals reabsorbed in 100 µL DMSO (Sigma, St. Louis, MO). Cell viability was determined by measuring the absorbance at 492 nm, using a microplate reader (BioWhittaker, Walkersville, MD).

H3122 Cells = conditions: for IC50: Homo sapiens
Protocol: as §1, §2, §3, §4

H2228 Cells = conditions: Homo sapiens, H2228 cells
Protocol: as §1, §2, §3, §4

[1] = Homo sapiens, HCC78, 72 h, HCC78 cells, tyrosine kinase inhibitor as single agent, 72 h, read-out: TKI IC50
[2] = NCI-H3122, 72 h, H3122 cells, tyrosine kinase inhibitor as single agent, 72 h, read-out: TKI IC50

Fold change in the TKI IC50 (HCC78 cells; HCC78 cells, TKI single agent vs with compound (1)) [fold]	IC50 (HCC78 cells; Homo sapiens, HCC78, HCC78 cells, TKI in combination with compound (1), read-out: Combination TKI IC50) [nM]	Fold change in the TKI IC50 (H3122 Cells; H3122 cells, TKI single agent vs with compound (1)) [fold]	IC50 (H3122 Cells; NCI-H3122, H3122 cells, TKI in combination with compound (1), read-out: Combination TKI IC50) [nM]	SMILES	IC50 (HCC78 cells; HCC78 cells, tyrosine kinase inhibitor as single agent, 72 h, read-out: TKI IC50) [nM]	IC50 (HCC78 cells; [1]) [nM]	IC50 (HCC78 cells; Homo sapiens, HCC78, read-out: Combination TKI IC50, HCC78 cells, TKI in combination with compound (1)) [nM]	IC50 (HCC78 cells; read-out: Combination TKI IC50, HCC78 cells, TKI in combination with compound (1)) [nM]	IC50 (H3122 Cells; [2]) [nM]	IC50 (H3122 Cells; NCI-H3122, read-out: IC50 of crizotinib in presence of compound of formula (1), H3122 cells, combination with compound (1)) [nM]	IC50 (H2228 Cells; NCI-H2228, read-out: IC50 of crizotinib when compound of formula (1) was also administered, combination with compound (1)) [nM]	IC50 (H2228 Cells; NCI-H2228, tyrosine kinase inhibitor as single agent, 72 h, read-out: TKI IC50) [nM]
				C[C@@H](Oc1cc(-c2cnn(C3CCNCC3)c2)cnc1N)c1c(Cl)ccc(F)c1Cl [Crizotinib, 3-[(1R)-1-(2,6-dichloro-3-fluorophenyl)ethoxy]-5-(1-piperidin-4-ylpyrazol-4-yl)pyridin-2-amine]	7160	7200	250	249	190	29	53	250
2.846	130			COc1cc2c(Oc3ccc(NC(=O)C4(C(=O)Nc5ccc(F)cc5)CC4)cc3F)ccnc2cc1OCCCN1CCOCC1 [Foretinib, N^1'-[3-fluoro-4-[[6-methoxy-7-(3-morpholinopropoxy)-4-quinolyl]oxy]phenyl]-N'-(4-fluorophenyl)cyclopropane-1,1-dicarboxamide]		370						
		3.355	15	CCc1cc2c(cc1N1CCC(N3CCOCC3)CC1)C(C)(C)c1[nH]c3cc(C#N)ccc3c1C2=O [Alectinib, 9-ethyl-6,6-dimethyl-8-(4-morpholinopiperidin-1-yl)-11-oxo-6,11-dihydro-5H-benzo[b]carbazole-3-carbonitrile]					50			
